Source: patent US10183950B2, “Thienopyrimidine inhibitors of atypical protein kinase C” (Cancer Research Technology Limited, priority 2011, dated 2019)
Like-named read-outs stand apart in the source and are kept apart here.

Molecular target: T1, kinase-domain human PKCι (Homo sapiens, UniProt P41743)
T1 construct: Recombinant, kinase-domain human PKCι is expressed and purified in-house; made in house
T1 sequence (P41743 254-522 limits assumed): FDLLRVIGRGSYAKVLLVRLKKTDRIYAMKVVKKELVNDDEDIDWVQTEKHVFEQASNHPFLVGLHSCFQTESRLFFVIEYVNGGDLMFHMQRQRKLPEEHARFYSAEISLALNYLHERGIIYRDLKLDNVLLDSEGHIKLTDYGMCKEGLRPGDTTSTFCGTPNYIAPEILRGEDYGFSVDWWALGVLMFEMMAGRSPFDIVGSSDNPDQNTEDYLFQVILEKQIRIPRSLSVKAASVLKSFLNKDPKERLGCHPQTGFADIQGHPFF
Assay: PKCι IC50 IMAP fluorescence polarisation assay, kinase-domain enzyme
Type: biochemical
Settings: kinase domain PKCi at 2 μM ATP

[1] = read-out: IC50 in IMAP assay against kinase domain PKCi (Activity)
[2] = read-out: IC50 in IMAP assay against kinase domain PKCi

Row | Structure (SMILES) | IC50 [1] [µM] | IC50 [2] [µM]
1 | CCCN1CCN(c2nc(-c3ccncc3)nc3sc4c(c23)CCCC4)CC1 [compound 133, 4-(4-Propyl-piperazin-1-yl)-2-pyridin-4-yl-5,6,7,8-tetrahydro-benzo[4,5]thieno[2,3-d]pyrimidine] | 10 to 40 | –
2 | N[C@@H](COc1nc(-c2ccncc2)nc2sc3c(c12)CCCC3)Cc1ccccc1 [compound 142, (R)-2-Phenyl-1-(2-pyridin-4-yl-5,6,7,8-tetrahydro-benzo[4,5]thieno[2,3-d]pyrimidin-4-yloxymethyl)-ethylamine] | 10 to 40 | –
3 | CC(C)Cc1csc2nc(-c3ccncc3)nc(NC[C@H](C)N)c12 [compound 29, (S)-N*1*-(5-Isobutyl-2-pyridin-4-yl-thieno[2,3-d]pyrimidin-4-yl)-propane-1,2-diamine] | 0.1 to 1 | –
4 | c1cc(-c2nc(OC[C@H]3CCCCN3)c3c4c(sc3n2)CCCC4)ccn1 [compound 178, 4-((R)-1-Piperidin-2-ylmethoxy)-2-pyridin-4-yl-5,6,7,8-tetrahydro-benzo[4,5]thieno[2,3-d]pyrimidine] | 1 to 10 | –
5 | N[C@H](COc1nc(-c2ccncc2)nc2sc3c(c12)CCCC3)Cc1ccc(F)cc1 [compound 162, (S)-1-(4-Fluoro-benzyl)-2-(2-pyridin-4-yl-5,6,7,8-tetrahydro-benzo[4,5]thieno[2,3-d]pyrimidin-4-yloxy)-ethylamine] | 10 to 40 | –
6 | CC1CCc2c(sc3nc(-c4ccncc4)nc(NC[C@@H](C)N)c23)C1 (stereo partly drawn) [compound 23, (R)-N*1*-(7-Methyl-2-pyridin-4-yl-5,6,7,8-tetrahydro-benzo[4,5]thieno[2,3-d]pyrimidin-4-yl)-propane-1,2-diamine] | 1 to 10 | –
7 | c1cc(-c2nc(OC[C@H]3CCCN3)c3c4c(sc3n2)CCCC4)ccn1 [compound 153, 2-Pyridin-4-yl-4-((R)-1-pyrrolidin-2-ylmethoxy)-5,6,7,8-tetrahydro-benzo[4,5]thieno[2,3-d]pyrimidine] | 1 to 10 | –
8 | c1cc(-c2nc(OC[C@@H]3CCCCN3)c3c4c(sc3n2)CCCC4)ccn1 [compound 179, 4-((S)-1-Piperidin-2-ylmethoxy)-2-pyridin-4-yl-5,6,7,8-tetrahydro-benzo[4,5]thieno[2,3-d]pyrimidine] | 10 to 40 | –
9 | c1cnc2sc3c(N4CCCNCC4)nc(-c4ccncc4)nc3c2c1 [compound 377, 4-[1,4]Diazepan-1-yl-2-pyridin-4-yl-pyrido[3′,2′:4,5]thieno[3,2-d]pyrimidine] | – | 1 to 10
10 | FC(F)(F)c1ccc(CN2CCN(c3nc(-c4ccncc4)nc4sc5c(c34)CCCC5)CC2)cc1 [compound 121, 2-Pyridin-4-yl-4-[4-(4-trifluoromethyl-benzyl)-piperazin-1-yl]-5,6,7,8-tetrahydro-benzo[4,5]thieno[2,3-d]pyrimidine] | 10 to 40 | –
11 | Cc1csc2c(N[C@@H]3CCNC3)nc(-c3ccncc3)nc12 [compound 312, (7-Methyl-2-pyridin-4-yl-thieno[3,2-d]pyrimidin-4-yl)-(R)-pyrrolidin-3-yl-amine] | – | 1 to 10
12 | c1n[nH]cc1-c1nc(N2CCCNCC2)c2c3c(sc2n1)CCCC3 [compound 186, 4-[1,4]Diazepan-1-yl-2-(1H-pyrazol-4-yl)-5,6,7,8-tetrahydro-benzo[4,5]thieno[2,3-d]pyrimidine] | 0.1 to 1 | –
13 | N[C@@H](COc1nc(-c2ccncc2)nc2sc3c(c12)CCCC3)c1ccccc1 [compound 147, (R)-1-Phenyl-2-(2-pyridin-4-yl-5,6,7,8-tetrahydro-benzo[4,5]thieno[2,3-d]pyrimidin-4-yloxy)-ethylamine] | 10 to 40 | –
14 | CC(C)Cc1csc2nc(-c3ccncc3)nc(NC[C@@H](C)N)c12 [compound 30, (R)-N*1*-(5-Isobutyl-2-pyridin-4-yl-thieno[2,3-d]pyrimidin-4-yl)-propane-1,2-diamine] | 1 to 10 | –
15 | N[C@H](COc1nc(-c2ccncc2)nc2sc3c(c12)CCCC3)Cc1cccc(F)c1 [compound 163, (S)-1-(3-Fluoro-benzyl)-2-(2-pyridin-4-yl-5,6,7,8-tetrahydro-benzo[4,5]thieno[2,3-d]pyrimidin-4-yloxy)-ethylamine] | 1 to 10 | –
16 | N[C@H](COc1nc(-c2ccncc2)nc2sc3c(c12)CCCC3)c1ccccc1 [compound 155, (S)-1-Phenyl-2-(2-pyridin-4-yl-5,6,7,8-tetrahydro-benzo[4,5]thieno[2,3-d]pyrimidin-4-yloxy)-ethylamine] | 1 to 10 | –
17 | CC[C@@H](N)COc1nc(-c2ccncc2)nc2sc3c(c12)CCCC3 [compound 149, (R)-1-(2-Pyridin-4-yl-5,6,7,8-tetrahydro-benzo[4,5]thieno[2,3-d]pyrimidin-4-yloxymethyl)-propylamine] | 1 to 10 | –
18 | C[C@H](N)CNc1nc(-c2ccncc2)nc2cc(-c3ccccc3)sc12 [compound 367, (S)-N*1*-(6-Phenyl-2-pyridin-4-yl-thieno[3,2-d]pyrimidin-4-yl)-propane-1,2-diamine] | – | 10 to 40

Row | Structure (SMILES) | IC50 [1] [µM] | IC50 [2] [µM]
19 | CN(CCN)c1nc(-c2ccncc2)nc2sc3c(c12)CCCC3 [compound 15, N*1*-Methyl-N*1*-(2-pyridin-4-yl-5,6,7,8-tetrahydro-benzo[4,5]thieno[2,3-d]pyrimidin-4-yl)-ethane-1,2-diamine] | 0.1 to 1 | –
20 | c1cc(-c2nc(N3CCCNCC3)c3c4c(sc3n2)CCCCC4)ccn1 [compound 86, 4-[1,4]Diazepan-1-yl-2-pyridin-4-yl-6,7,8,9-tetrahydro-5H-10-thia-1,3-diaza-benzo[a]azulene] | 0.1 to 1 | –
21 | CCc1cc2c(NC[C@H](C)N)nc(-c3ccncc3)nc2s1 [compound 34, (S)-N*1*-(6-Ethyl-2-pyridin-4-yl-thieno[2,3-d]pyrimidin-4-yl)-propane-1,2-diamine] | 1 to 10 | –
22 | N[C@@H](CNc1nc(-c2ccncc2)nc2sc3c(c12)CCCC3)Cc1c[nH]c2ccccc12 [compound 7, (R)-3-(1H-Indol-3-yl)-N*1*- (2-pyridin-4-yl-5,6,7,8-tetrahydro-benzo[4,5]thieno[2,3-d]pyrimidin-4-yl)-propane-1,2-diamine] | 1 to 10 | –
23 | Cc1n[nH]c(C)c1-c1nc(N2CCNCC2)c2c3c(sc2n1)CCCC3 [compound 190, 2-(3,5-Dimethyl-1H-pyrazol-4-yl)-4-piperazin-1-yl-5,6,7,8-tetrahydro-benzo[4,5]thieno[2,3-d]pyrimidine] | 0.1 to 1 | –
24 | Cc1sc2nc(-c3ccncc3)nc(NCCN)c2c1-c1ccccc1 [compound 91, N*1*-(6-Methyl-5-phenyl-2-pyridin-4-yl-thieno[2,3-d]pyrimidin-4-yl)-ethane-1,2-diamine] | 1 to 10 | –
25 | CC(C)C[C@@H](N)COc1nc(-c2ccncc2)nc2sc3c(c12)CCCC3 [compound 146, (R)-3-Methyl-1-(2-pyridin-4-yl-5,6,7,8-tetrahydro-benzo[4,5]thieno[2,3-d]pyrimidin-4-yloxymethyl)-butylamine] | 1 to 10 | –
26 | CC(C)[C@H](N)COc1nc(-c2ccncc2)nc2sc3c(c12)CCCC3 [compound 151, (S)-2-Methyl-1-(2-pyridin-4-yl-5,6,7,8-tetrahydro-benzo[4,5]thieno[2,3-d]pyrimidin-4-yloxymethyl)-propylamine] | 1 to 10 | –
27 | CC(C)(C)c1ccc(-c2cc3nc(-c4ccncc4)nc(NCCN)c3s2)cc1 [compound 360, N*1*-[6-(4-tert-Butyl-phenyl)-2-pyridin-4-yl-thieno[3,2-d]pyrimidin-4-yl]-ethane-1,2-diamine] | – | 10 to 40
28 | C[C@@H](N)CNc1nc(-c2ccncc2)nc2sc3c(c12)CCCC3 [compound 2, (R)-N*1*-(2-Pyridin-4-yl-5,6,7,8-tetrahydro-benzo[4,5]thieno[2,3-d]pyrimidin-4-yl)-propane-1,2-diamine] | 0.1 to 1 | –
29 | Cc1n[nH]c(C)c1-c1nc(N[C@@H]2CCNC2)c2c3c(sc2n1)CCCC3 [compound 194, [2-(3,5-Dimethyl-1H-pyrazol-4-yl)-5,6,7,8-tetrahydro-benzo[4,5]thieno[2,3-d]pyrimidin-4-yl]-(R)-pyrrolidin-3-yl-amine] | 0.1 to 1 | –
30 | Brc1ccc(CN2CCN(c3nc(-c4ccncc4)nc4sc5c(c34)CCCC5)CC2)cn1 [compound 128, 4-[4-(6-Bromo-pyridin-3-ylmethyl)-piperazin-1-yl]-2-pyridin-4-yl-5,6,7,8-tetrahydro-benzo[4,5]thieno[2,3-d]pyrimidine] | 10 to 40 | –
31 | Cc1csc2c(OC[C@H]3CCCN3)nc(-c3ccncc3)nc12 [compound 476, 7-methyl-2-pyridin-4-yl-4-((R)-1-pyrrolidin-2-ylmethoxy)-thieno[3,2-d]pyrimidine] | – | 10 to 40
32 | N[C@H](CNc1nc(-c2ccncc2)nc2sc3c(c12)CCCCCC3)Cc1ccccc1 [compound 76, (S)-3-Phenyl-N*1*-(2-pyridin-4-yl-5,6,7,8,9,10-hexahydro-11-thia-1,3-diaza-cycloocta[a]inden-4-yl)-propane-1,2-diamine] | 0.1 to 1 | –
33 | CC[C@H](N)COc1nc(-c2ccncc2)nc2sc3c(c12)CCCC3 [compound 150, (S)-1-(2-Pyridin-4-yl-5,6,7,8-tetrahydro-benzo[4,5]thieno[2,3-d]pyrimidin-4-yloxymethyl)-propylamine] | 1 to 10 | –
34 | COc1ccc(C[C@H](N)COc2nc(-c3ccncc3)nc3sc4c(c23)CCCC4)cc1 [compound 159, (S)-1-(4-methoxy-benzyl)-2-(2-pyridin-4-yl-5,6,7,8-tetrahydro-benzo[4,5]thieno [2,3-d]pyrimidin-4-yloxy)-ethylamine] | 1 to 10 | –
35 | Cc1n[nH]c(C)c1-c1nc(NCCN)c2c3c(sc2n1)CCCC3 [compound 182, N*1*-[2-(3,5-Dimethyl-1H-pyrazol-4-yl)-5,6,7,8-tetrahydro-benzo[4,5]thieno[2,3-d]pyrimidin-4-yl]-ethane-1,2-diamine] | 0.1 to 1 | –
